Results: article PMC8222394 (Nature Communications, 2021)
Where “and” joins values, the source holds several entries; their conditions need not be identical. Identical values can stand only once. Like-named read-outs stand apart in the source and are kept apart here.

How the values were obtained:
in vitro = conditions: human
TMPRSS2 [1] = conditions: Beas-2B; for TMPRSS2 densitometry: Fig. 6A, 6 h, listed as HFG
SARS-CoV-2 pseudovirus [2] = type: cell-based
DCAF1 [3] = assay: Cellular thermal shift assay, DCAF1; type: binding, human; conditions: Beas-2B, HFG 3 μM 1 h
[4] = tested on: SARS-CoV-2 (wildtype-USA-WA1/2020); type: cell-based
E-cadherin = assay: Immunoblot of E-cadherin in Caco-2 cells; type: cell-based, human
SARS-CoV-2 pseudovirus [5] = assay: microbe, parasite or virus in culture; type: cell-based; conditions: Severe acute respiratory syndrome-related coronavirus
TMPRSS2 [6] = assay: In vitro transcription and translation proline treatment assay; type: biochemical; conditions: with or without L-proline supplementation
Procedure: TMPRSS2 constructs were synthesized in vitro using TnT Coupled Reticulocyte Lysate System (Promega) following manufacturer’s protocol. HFG plus proline assays were conducted using in vitro transcription and translation kit with free amino acids diluted 5-fold and proline supplemented at indicated concentrations. Following synthesis, products were analyzed via immunoblotting.

TMPRSS2 [7] = conditions: for TMPRSS2 densitometry (relative to 0): Fig. 4C, Caco-2, 18 h; for TMPRSS2 densitometry (relative to 0) / TMPRSS2 densitometry, time course: listed as HFG; for TMPRSS2 densitometry, time course: Fig. 4D, Caco-2, 3 µM
TMPRSS2 [8] = target: T1, TMPRSS2 (Homo sapiens, UniProt O15393); conditions: Beas-2B, HFG 3 μM 1 h
Target sequence in this assay (O15393 whole entry): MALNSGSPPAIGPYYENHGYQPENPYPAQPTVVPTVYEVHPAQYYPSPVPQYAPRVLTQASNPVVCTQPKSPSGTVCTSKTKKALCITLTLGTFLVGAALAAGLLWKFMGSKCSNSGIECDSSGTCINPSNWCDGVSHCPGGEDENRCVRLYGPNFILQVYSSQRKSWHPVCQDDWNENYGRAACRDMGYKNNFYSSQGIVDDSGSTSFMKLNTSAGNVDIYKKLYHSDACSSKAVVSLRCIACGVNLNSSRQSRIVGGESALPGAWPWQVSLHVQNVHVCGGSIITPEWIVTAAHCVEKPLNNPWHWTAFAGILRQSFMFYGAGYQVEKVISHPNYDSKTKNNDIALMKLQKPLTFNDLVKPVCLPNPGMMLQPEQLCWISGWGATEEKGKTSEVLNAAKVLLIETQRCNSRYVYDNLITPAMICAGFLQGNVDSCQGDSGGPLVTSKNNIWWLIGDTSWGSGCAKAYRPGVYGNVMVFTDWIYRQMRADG

TMPRSS2 [9] = conditions: Calu-3 cells
TMPRSS2 [10] = conditions: Caco-2 cells, 18 h treatment then washout
Ace2-GFP = assay: Immunoblot of Ace2-GFP in Beas-2B cells; type: cell-based
TMPRSS2 [11] = tested on: TMPRSS2
TMPRSS2 [12] = target: T1, TMPRSS2; assay: TMPRSS2 activity assay (Boc-Gln-Ala-Arg-MCA fluorescence); type: biochemical; design: purchased LSBio; conditions: for TMPRSS2 activity (FigS9 source data): replicates
Procedure: Fluorescence (380-15 nm excitation/470-20 nm emission) of the samples was monitored over 4:45 h and the slope of the curves was calculated by linear regression analysis and used as output for TMPRSS2 activity.
Target sequence in this assay (O15393 106-492): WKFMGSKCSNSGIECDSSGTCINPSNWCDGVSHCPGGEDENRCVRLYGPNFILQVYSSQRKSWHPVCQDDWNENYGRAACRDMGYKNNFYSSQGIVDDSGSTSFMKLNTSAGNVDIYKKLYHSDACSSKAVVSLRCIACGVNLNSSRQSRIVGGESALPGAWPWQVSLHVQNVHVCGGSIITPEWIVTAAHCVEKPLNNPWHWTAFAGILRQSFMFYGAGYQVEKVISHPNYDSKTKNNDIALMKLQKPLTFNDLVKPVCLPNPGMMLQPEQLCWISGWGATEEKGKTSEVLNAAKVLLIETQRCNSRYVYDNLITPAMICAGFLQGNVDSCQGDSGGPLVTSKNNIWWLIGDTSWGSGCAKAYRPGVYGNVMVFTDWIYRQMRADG

TMPRSS2-V5 = type: cell-based, human
SARS-CoV-2 pseudovirus [13] = assay: Cell-based proline treatment, pseudoviral entry; conditions: for pseudoviral entry relative to Veh: replicates, listed as HFG
[14] = human, 3.5 mg/day Oral; cited from earlier work
DCAF1 [15] = assay: qPCR of DCAF1 gene expression in Caco-2 cells; type: cell-based, human
SARS-CoV-2 pseudovirus [16] = type: cell-based; remark: listed apart in the source
[17] = cited from earlier work
ST14 = assay: RT-qPCR of ST14 mRNA in Caco-2 cells; type: cell-based, human; conditions: Fig. S3B, Caco-2, 6 hr, relative to Veh

O=C(CC1NCCCC1O)Cn1cnc2cc(Br)c(Cl)cc2c1=O (stereo not drawn) [Halofuginone]
CC50 (in vitro): ~5.54 µM | effect on TMPRSS2 protein levels in DCAF1-knockdown cells (TMPRSS2 [1]; DCAF1 siRNA): abrogated | TMPRSS2 expression in control knockdown cells (TMPRSS2 [1]; control siRNA): reduced TMPRSS2 expression | TMPRSS2 densitometry (TMPRSS2 [1]; Ctrl siRNA, HFG 100 nM): 0.643 and 0.6245 and 0.6321 | TMPRSS2 densitometry (TMPRSS2 [1]; Ctrl siRNA, HFG 300 nM): 0.4952 and 0.3574 and 0.5989 | TMPRSS2 densitometry (TMPRSS2 [1]; DCAF1 KD 1, HFG 100 nM): 1.233 and 1.219 and 1.274 | TMPRSS2 densitometry (TMPRSS2 [1]; DCAF1 KD 1, HFG 300 nM): 1.254 and 1.215 and 1.261 | TMPRSS2 densitometry (TMPRSS2 [1]; DCAF1 KD 2, HFG 100 nM): 1.233 and 1.237 and 1.31 | TMPRSS2 densitometry (TMPRSS2 [1]; DCAF1 KD 2, HFG 300 nM): 1.246 and 1.239 and 1.116 | pseudoviral luciferase reporter signal (SARS-CoV-2 pseudovirus [2]): dose-dependent reduction of the luciferase signal | signal relative to Control (FigS7 source data) (SARS-CoV-2 pseudovirus [2]): 0.6435 and 0.5799 and 0.5278 | binding to DCAF1 (DCAF1 [3]): does not bind | reduction of SARS-CoV-2 viral infection [4]: highly effective in reducing SARS-CoV-2 viral infection | E-cadherin protein (E-cadherin): unaffected | IC50 (SARS-CoV-2 pseudovirus [5]; Caco-2, read-out: In vitro IC50 (viral entry)): ~30 nM | IC50 (SARS-CoV-2 pseudovirus [5]; Caco-2, read-out: concentration for 50% reduction in the level of pseudoviral entry): ~300 nM | synthesis of TMPRSS2 (TMPRSS2 [6]): can inhibit the in vitro and in vivo synthesis of TMPRSS2 in a proline-dependent fashion | time to substantial reduction in TMPRSS2 expression (TMPRSS2 [7]; Caco-2 cells, 3 µM): within three hours | endogenous TMPRSS2 protein expression (TMPRSS2 [7]; Caco-2 cells, 18 h): marked reduction | TMPRSS2 densitometry (relative to 0) (TMPRSS2 [7]; head 1 (unit not given)): 0.1807 and 0.1069 | TMPRSS2 densitometry (relative to 0) (TMPRSS2 [7]; head 3): 0.1607 and 0.08785 | TMPRSS2 densitometry, time course (TMPRSS2 [7]; time head 3): 0.6876 and 0.6922 and 0.7386 | TMPRSS2 densitometry, time course (TMPRSS2 [7]; time head 6): 0.2973 and 0.5193 and 0.5743 | TMPRSS2 densitometry, time course (TMPRSS2 [7]; time head 24): 0.2861 and 0.2479 and 0.396 | binding to TMPRSS2 (TMPRSS2 [8]): does not bind | TMPRSS2 protein levels (TMPRSS2 [9]): qualitatively similar decreases | recovery of TMPRSS2 levels after drug removal (TMPRSS2 [10]): returned close to baseline roughly six hours after drug removal | Ace2 protein (Ace2-GFP): unaffected | TMPRSS2 transcription (TMPRSS2 [11]; Caco-2 cells): modestly increased | TMPRSS2 mRNA expression, Set1 (TMPRSS2 [11]; Fig. S3B, Caco-2, 6 hr, relative to Veh): 1.663 and 2.342 and 1.988 and 2.135 | TMPRSS2 activity (FigS9 source data) (TMPRSS2 [12]; 0.08 µM): 0.4091 and 0.4156 and 0.3953 and 0.4416 | TMPRSS2 activity (FigS9 source data) (TMPRSS2 [12]; 0.4 µM): 0.4106 and 0.359 and 0.3929 and 0.3576 | TMPRSS2 activity (FigS9 source data) (TMPRSS2 [12]; 2 µM): 0.4305 and 0.3555 and 0.3601 and 0.3121 | TMPRSS2 catalytic activity (TMPRSS2 [12]; recombinant TMPRSS2, preliminary): does not inhibit TMPRSS2 catalytic activity | TMPRSS2-V5 versus LacZ-V5 expression (TMPRSS2-V5): selectively reduced TMPRSS2 expression | pseudoviral entry relative to Veh (SARS-CoV-2 pseudovirus [13]; concentration 0.0137 (unit not given), 0mM Proline): 152.697 and 134.687 and 120.427 and 97.7116 and 89.0983 and 90.8546 and 80.2015 and 88.7016 | pseudoviral entry relative to Veh (SARS-CoV-2 pseudovirus [13]; concentration 0.0137 (unit not given), 1mM Proline): 78.8997 and 119.296 and 92.4783 and 61.8538 and 121.318 and 103.717 and 95.0292 and 87.0468 | pseudoviral entry relative to Veh (SARS-CoV-2 pseudovirus [13]; concentration 0.0137 (unit not given), 5mM Proline): 83.8659 and 82.9011 and 90.5346 and 126.552 and 83.6269 and 86.2224 and 92.3835 and 76.5378 | pseudoviral entry relative to Veh (SARS-CoV-2 pseudovirus [13]; concentration 0.0412 (unit not given), 0mM Proline): 135.074 and 83.8509 and 103.144 and 111.461 and 116.846 and 105.51 and 105.878 and 113.705 | pseudoviral entry relative to Veh (SARS-CoV-2 pseudovirus [13]; concentration 0.0412 (unit not given), 1mM Proline): 110.112 and 97.4283 and 87.7103 and 127.69 and 97.5882 and 67.824 and 78.2944 and 117.716 | pseudoviral entry relative to Veh (SARS-CoV-2 pseudovirus [13]; concentration 0.0412 (unit not given), 5mM Proline): 82.5299 and 121.265 and 73.6811 and 85.0503 and 103.755 and 88.171 and 83.5837 and 102.919 | pseudoviral entry relative to Veh (SARS-CoV-2 pseudovirus [13]; concentration 0.123 (unit not given), 0mM Proline): 99.7343 and 63.0974 and 80.3685 and 70.3519 and 79.4198 and 74.6305 and 82.2505 and 58.3341 | pseudoviral entry relative to Veh (SARS-CoV-2 pseudovirus [13]; concentration 0.123 (unit not given), 1mM Proline): 81.4705 and 100.257 and 127.468 and 88.584 and 113.575 and 85.4328 and 91.2395 and 78.3868 | pseudoviral entry relative to Veh (SARS-CoV-2 pseudovirus [13]; concentration 0.123 (unit not given), 5mM Proline): 62.4818 and 82.8199 and 109.855 and 101.172 and 80.2202 and 78.6211 and 92.2054 and 82.6012 | pseudoviral entry relative to Veh (SARS-CoV-2 pseudovirus [13]; concentration 0.37 (unit not given), 0mM Proline): 52.2274 and 41.9717 and 59.924 and 47.6381 and 40.7991 and 39.6967 and 44.7511 and 47.5163 | pseudoviral entry relative to Veh (SARS-CoV-2 pseudovirus [13]; concentration 0.37 (unit not given), 1mM Proline): 63.0963 and 89.0802 and 95.5491 and 76.9085 and 75.5967 and 54.6206 and 124.078 and 94.9093 | pseudoviral entry relative to Veh (SARS-CoV-2 pseudovirus [13]; concentration 0.37 (unit not given), 5mM Proline): 84.0152 and 111.59 and 116.82 and 90.6831 and 82.0915 and 111.563 and 85.8373 and 95.0829 | protection against pseudoviral entry with proline augmentation (SARS-CoV-2 pseudovirus [13]; proline added to cell culture media): ablated | Cmax [14]: 7 nM | DCAF1 gene expression (DCAF1 [15]; Caco-2, 3µM): do not affect DCAF1 gene expression | relative DCAF1 gene expression (DCAF1 [15]; block Vehicle/HFG/HHT, replicates, listed as HFG): 1.066 and 1.83 and 0.845 and 0.576 | pseudoviral GFP expression (SARS-CoV-2 pseudovirus [16]): markedly reduced levels of GFP expression | toxicity profile [17]: very mild toxicity profile and is generally well tolerated | ST14 mRNA expression (ST14): 0.847 and 0.804 and 0.672 and 1.192
